Earlier results in US20230302026A1, “IMMUNOMODULATION FORMULATIONS AND RELATED METHODS” (priority 2020, published 2023).
In brackets after ≈: the same amount, converted by molar mass. Where two headings read alike, the source gives them in different places.

Tests used:
CB2 [1] = target: T1, CB2 (Homo sapiens, UniProt P34972)
inflammation = settings: animal model
monoamine oxidase = settings: in vitro; read-out: IC50 as monoamine oxidase inhibitor (MAOI)
MAGL = target: T2, MAGL (Homo sapiens, UniProt Q99685); settings: read-out: IC50 as MAGL inhibitor
T2 sequence (Q99685 1-303): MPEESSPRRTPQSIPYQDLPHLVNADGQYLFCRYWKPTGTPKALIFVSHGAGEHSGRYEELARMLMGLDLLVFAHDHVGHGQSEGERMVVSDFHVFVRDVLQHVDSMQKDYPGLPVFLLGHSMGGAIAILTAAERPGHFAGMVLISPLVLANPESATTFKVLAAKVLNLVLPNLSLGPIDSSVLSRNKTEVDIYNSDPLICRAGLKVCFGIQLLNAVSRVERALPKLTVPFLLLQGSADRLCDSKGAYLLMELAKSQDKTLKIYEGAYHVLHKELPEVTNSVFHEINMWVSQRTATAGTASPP

FAAH [2] = settings: read-out: IC50 as FAAH inhibitor
CB1 [3] = target: T3, CB1 (Homo sapiens, UniProt P21554); settings: read-out: Ki, affinity for the human recombinant CB1 receptor
Target sequence in this assay (P21554 whole entry): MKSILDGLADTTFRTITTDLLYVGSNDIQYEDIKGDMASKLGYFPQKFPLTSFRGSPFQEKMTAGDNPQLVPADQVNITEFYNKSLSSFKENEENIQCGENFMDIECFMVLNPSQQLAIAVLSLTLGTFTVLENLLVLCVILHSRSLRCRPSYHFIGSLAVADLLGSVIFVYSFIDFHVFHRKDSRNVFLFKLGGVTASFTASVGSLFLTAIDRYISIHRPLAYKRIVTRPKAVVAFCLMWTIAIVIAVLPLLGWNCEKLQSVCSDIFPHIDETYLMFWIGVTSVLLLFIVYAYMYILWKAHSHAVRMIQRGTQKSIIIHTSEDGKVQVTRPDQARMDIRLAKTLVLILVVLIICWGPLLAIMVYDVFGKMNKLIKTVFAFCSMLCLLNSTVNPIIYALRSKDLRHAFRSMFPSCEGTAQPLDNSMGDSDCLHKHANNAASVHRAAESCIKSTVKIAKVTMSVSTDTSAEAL

CB1 [4] = target: T3, CB1
Target sequence in this assay (P21554 whole entry, species assumed): as the sequence (P21554 whole entry) above

CB2 [5] = target: T1, CB2; remark: listed apart in the source
FAAH [6] = target: T4, FAAH (Homo sapiens, UniProt O00519)
T4 sequence (O00519 1-579): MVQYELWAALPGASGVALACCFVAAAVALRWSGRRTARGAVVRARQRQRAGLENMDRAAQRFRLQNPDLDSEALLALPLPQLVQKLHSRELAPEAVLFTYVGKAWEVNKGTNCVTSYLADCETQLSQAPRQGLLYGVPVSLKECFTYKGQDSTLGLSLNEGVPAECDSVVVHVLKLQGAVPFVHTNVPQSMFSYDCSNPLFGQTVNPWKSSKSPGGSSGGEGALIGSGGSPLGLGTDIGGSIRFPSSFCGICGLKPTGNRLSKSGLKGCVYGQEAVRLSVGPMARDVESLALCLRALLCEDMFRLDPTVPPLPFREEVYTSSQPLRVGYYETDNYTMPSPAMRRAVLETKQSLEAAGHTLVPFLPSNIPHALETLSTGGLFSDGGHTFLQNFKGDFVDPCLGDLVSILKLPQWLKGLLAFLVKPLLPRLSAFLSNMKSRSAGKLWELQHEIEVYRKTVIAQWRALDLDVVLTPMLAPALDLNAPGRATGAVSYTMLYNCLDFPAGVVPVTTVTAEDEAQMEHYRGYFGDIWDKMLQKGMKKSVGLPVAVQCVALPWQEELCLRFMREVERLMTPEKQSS

TRPV1 = TRPV1 (Homo sapiens, UniProt Q8NER1)
Chain of TRPV1 (Q8NER1 whole entry, species assumed): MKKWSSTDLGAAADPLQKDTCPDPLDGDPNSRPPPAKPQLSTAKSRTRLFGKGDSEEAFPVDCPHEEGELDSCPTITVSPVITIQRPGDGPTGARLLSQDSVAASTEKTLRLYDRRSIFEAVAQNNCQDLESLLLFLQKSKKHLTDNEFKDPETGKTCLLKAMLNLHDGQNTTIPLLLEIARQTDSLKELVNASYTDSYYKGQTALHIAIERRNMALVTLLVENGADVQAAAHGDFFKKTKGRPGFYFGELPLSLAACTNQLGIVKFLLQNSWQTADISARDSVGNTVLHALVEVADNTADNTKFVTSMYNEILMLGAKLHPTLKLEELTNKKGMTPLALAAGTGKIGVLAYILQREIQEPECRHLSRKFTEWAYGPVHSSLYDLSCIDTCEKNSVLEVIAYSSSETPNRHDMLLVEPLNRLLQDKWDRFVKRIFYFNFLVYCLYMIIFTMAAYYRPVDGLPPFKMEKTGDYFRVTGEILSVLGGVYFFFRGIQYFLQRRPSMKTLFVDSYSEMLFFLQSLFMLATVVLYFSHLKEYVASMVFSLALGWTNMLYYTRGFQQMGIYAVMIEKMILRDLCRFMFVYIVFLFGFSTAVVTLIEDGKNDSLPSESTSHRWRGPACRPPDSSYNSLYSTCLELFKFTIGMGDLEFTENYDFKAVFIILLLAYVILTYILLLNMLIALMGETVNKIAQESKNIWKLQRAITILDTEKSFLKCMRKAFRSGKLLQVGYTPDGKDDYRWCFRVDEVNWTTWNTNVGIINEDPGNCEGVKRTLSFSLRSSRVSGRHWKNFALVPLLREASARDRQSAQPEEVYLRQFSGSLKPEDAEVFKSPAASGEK

Adenosine A2A = Adenosine A2A (Homo sapiens, UniProt P29274)
Chain of Adenosine A2A (P29274 whole entry): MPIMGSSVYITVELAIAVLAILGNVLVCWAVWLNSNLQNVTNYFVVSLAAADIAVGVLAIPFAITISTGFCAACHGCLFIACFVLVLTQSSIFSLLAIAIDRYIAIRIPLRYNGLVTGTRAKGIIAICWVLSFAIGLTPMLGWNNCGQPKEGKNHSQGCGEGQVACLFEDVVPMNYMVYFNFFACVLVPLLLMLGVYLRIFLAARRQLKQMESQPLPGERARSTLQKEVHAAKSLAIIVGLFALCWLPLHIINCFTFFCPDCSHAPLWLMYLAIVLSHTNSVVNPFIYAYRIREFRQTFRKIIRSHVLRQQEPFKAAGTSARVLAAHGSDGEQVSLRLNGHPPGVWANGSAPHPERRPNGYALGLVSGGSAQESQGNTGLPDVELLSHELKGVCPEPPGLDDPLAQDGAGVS

5-HT1a = target: T5, 5-HT1a (Homo sapiens, UniProt P08908)
T5 sequence (P08908 1-422): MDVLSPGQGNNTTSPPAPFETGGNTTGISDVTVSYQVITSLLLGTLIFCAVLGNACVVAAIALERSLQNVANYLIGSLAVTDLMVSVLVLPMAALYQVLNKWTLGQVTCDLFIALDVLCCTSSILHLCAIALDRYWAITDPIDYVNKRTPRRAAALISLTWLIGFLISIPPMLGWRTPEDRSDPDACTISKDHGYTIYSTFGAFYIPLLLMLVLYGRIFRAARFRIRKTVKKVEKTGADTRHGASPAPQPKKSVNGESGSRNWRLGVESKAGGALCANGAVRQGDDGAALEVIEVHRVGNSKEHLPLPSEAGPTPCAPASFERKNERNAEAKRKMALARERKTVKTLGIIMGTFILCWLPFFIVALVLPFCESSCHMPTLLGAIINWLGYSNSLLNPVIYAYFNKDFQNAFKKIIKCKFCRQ

GPR55 = GPR55 (Homo sapiens, UniProt Q9Y2T6)
Chain of GPR55 (Q9Y2T6 whole entry, species assumed): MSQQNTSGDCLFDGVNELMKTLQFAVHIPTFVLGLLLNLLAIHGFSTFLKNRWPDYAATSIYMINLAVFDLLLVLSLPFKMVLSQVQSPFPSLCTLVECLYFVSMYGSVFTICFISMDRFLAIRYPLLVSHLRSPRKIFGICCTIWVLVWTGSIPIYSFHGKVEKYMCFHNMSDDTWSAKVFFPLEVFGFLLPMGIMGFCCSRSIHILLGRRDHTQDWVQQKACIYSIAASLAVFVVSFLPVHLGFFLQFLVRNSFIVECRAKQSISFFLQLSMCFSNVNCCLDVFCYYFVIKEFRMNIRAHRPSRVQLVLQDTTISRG

[7] = at 18° C.

T1 sequence (P34972 whole entry): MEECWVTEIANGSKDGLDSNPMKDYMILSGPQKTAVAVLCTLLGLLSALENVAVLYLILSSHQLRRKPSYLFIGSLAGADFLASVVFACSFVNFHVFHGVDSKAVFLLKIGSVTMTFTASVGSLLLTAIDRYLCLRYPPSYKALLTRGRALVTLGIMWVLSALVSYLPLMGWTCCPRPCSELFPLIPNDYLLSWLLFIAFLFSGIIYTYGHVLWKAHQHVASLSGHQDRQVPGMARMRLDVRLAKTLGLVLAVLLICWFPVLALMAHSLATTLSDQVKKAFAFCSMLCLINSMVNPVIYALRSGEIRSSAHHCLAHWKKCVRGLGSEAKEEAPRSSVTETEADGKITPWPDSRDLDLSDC

In the case of `CCCCCc1cc(O)c2c(c1)OC(C)(C)[C@@H]1CCC(C)=C[C@@H]21` [THC, Δ^9-tetrahydrocannabinol], the “activity at CB2” value (CB2 [1]) is given as “partial agonist”.
For `C/C1=C\CC/C(C)=C/CC(C)(C)/C=C/C1` [Humulene], the anti-inflammatory activity (inflammation) is listed as “equal to dexamethasone”.
In the case of `C=CC(C)(C)c1cc2cc3c(cc2oc1=O)OC(C(C)(C)OC(C)=O)C3` (stereo not drawn) [rutamarin], the Ki (CB2 [1]) is given as under 10 µM.
In the case of `CC(C)CNC(=O)/C=C/C=C/CCCCCC/C=C/c1ccc2c(c1)OCO2` [guineesine], the IC50 (monoamine oxidase) is given as 139 µM.
In the case of `c1ccc2c(Cc3c[nH]c4ccccc34)c[nH]c2c1` [3,3′-Diindolylmethane], the Ki (CB2 [1]) is listed as about 1 µM.
For `O=c1c(O)c(-c2ccc(O)cc2)oc2cc(O)cc(O)c12` [kaempherol], the IC50 (MAGL) is listed as under 0.1 µM and the IC50 (FAAH [2]) is listed as under 1 µM.
In the case of `C=C1CC/C=C(\C)CC[C@@H]2[C@@H]1CC2(C)C` [(E)-BCP, beta-carophyllene], the Ki (CB2 [1]) is given as 0.155 ± 0.004 µM.
For `COc1ccc(/C=C/c2cc(OC)cc(=O)o2)cc1` [Yangonin, yangonin], the Ki (CB1 [3]) is given as 0.72 µM and the Ki (CB2 [1]) is given as over 10 µM.
For `C=C(C)[C@@H]1CCC(C)=C[C@H]1c1c(O)cc(CCCCC)cc1O` [cannabidiol], the “Activity at CB1” value (CB1 [4]) is given as “Agonist”, the “activity at CB2” value (CB2 [5]) is given as “Agonist” and the “Activity at FAAH” value (FAAH [6]) is given as “Inhibition”. The “Activity at TRPV1” value (TRPV1) was “Agonist”, the “Activity at Adenosine A2A” value (Adenosine A2A) was “Agonist” and the “Activity at 5-HT1a” value (5-HT1a) was “Agonist”. The “Activity at GPR55” value (GPR55) was “Antagonist”.
In the case of `O=C(/C=C/C=C/c1ccc2c(c1)OCO2)N1CCCCC1` [piperine], the solubility in water [7] is listed as 40 µg/mL (≈ 140 µM).
